Test results from ChEMBL document CHEMBL1201862, “PubChem BioAssay data set” (2004).
Active and inactive are the calls of the source.

Tests used:
[1] = Vero E6 cell cytotoxicity, dose response, cytotoxicity control for non-replicating M. tuberculosis project, secondary assay (AID 492998); assay type: functional, VeroE6; conditions: Vero C1008
[2] = THP-1 cell cytotoxicity, dose response, cytotoxicity control for non-replicating M. tuberculosis project (AID 489025); assay type: functional
cells [3] = assay type: functional
[4] = HepG2 cell cytotoxicity, dose response, cytotoxicity control for non-replicating M. tuberculosis project (AID 489018); assay type: functional; conditions: Mycobacterium tuberculosis
[5] = molecular target: T1, Short transient receptor potential channel 4 (Mus musculus, UniProt Q9QUQ5); assay: calcium entry via TRPC4 opening agents – cell-based, HEK293 TRPC4/mu-opioid, Fluo-4 calcium, dose response (AID 434937); assay type: functional
T1 sequence (Q9QUQ5 whole entry): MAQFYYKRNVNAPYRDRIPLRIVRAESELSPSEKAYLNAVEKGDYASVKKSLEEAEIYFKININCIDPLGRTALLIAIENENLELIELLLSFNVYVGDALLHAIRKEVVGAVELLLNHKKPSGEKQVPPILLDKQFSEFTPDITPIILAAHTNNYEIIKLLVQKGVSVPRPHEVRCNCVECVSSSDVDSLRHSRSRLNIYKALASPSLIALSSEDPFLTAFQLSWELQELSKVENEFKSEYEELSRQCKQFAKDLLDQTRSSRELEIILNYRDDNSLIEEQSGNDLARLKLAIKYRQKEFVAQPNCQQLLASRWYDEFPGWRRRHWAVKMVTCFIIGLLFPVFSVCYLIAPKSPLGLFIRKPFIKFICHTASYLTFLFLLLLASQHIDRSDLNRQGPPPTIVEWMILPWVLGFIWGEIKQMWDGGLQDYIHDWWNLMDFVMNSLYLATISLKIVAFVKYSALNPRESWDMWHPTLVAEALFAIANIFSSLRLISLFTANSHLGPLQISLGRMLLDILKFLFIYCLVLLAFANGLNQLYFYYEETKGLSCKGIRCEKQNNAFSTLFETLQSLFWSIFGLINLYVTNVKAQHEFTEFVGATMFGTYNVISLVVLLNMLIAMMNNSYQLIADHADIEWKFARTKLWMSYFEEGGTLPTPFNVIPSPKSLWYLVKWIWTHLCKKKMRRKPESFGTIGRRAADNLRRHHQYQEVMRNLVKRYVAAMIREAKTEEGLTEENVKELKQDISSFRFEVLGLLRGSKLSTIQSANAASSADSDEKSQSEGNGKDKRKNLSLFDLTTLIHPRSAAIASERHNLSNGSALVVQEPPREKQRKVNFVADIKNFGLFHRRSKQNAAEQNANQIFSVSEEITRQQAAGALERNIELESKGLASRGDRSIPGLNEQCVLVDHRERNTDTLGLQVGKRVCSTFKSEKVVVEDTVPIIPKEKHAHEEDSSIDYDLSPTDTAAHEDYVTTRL

[6] = microbe, parasite or virus in culture; assay type: functional; conditions: Mycobacterium tuberculosis
[7] = intracellular Trypanosoma cruzi inhibitors in host cells – cell-based, plate reader, cherry-pick samples, set 3, dose response (AID 651818); assay type: functional;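 also: compounds incubated with infected cells for about four days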
[8] = growth inhibition of PfATP4-mutant resistant parasites – NITD609-resistant line, SYBR Green, dry powder, dose response (AID 1159571); assay type: functional, cell-based;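 also: parasites synchronized at ring stage by sorbitol before testing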
[9] = toxicity to human hepatoma HepG2 cells – cell-based, cherry-picked samples, cytotoxicity control, dose response (AID 1159577); assay type: functional
[10] = Dd2 malaria parasite growth inhibition potency – SYBR Green, dry powder samples, dose response (AID 1159566); assay type: functional, cell-based;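 also: potency for growth inhibition with lower SYBR green DNA signal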
[11] = P. falciparum Dd2 growth inhibitors, dose response, SYBR Green, cherry-picked samples (AID 1159567); assay type: functional, cell-based
[12] = growth inhibition of yeast DHODH-expressing 3D7 parasites – SYBR Green, dry powder samples, dose response (AID 1159570); assay type: functional, cell-based;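 also: parasite growth measured after 72 hours of compound exposure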
Vero [13] = assay: cells; assay type: functional, cell-based; conditions: Chlorocebus sabaeus
Vero [14] = assay: cells; assay type: functional; conditions: Chlorocebus sabaeus
[15] = decrease of insulin promoter-GFP reporter – imaging, high-content screening, mouse beta cells (AID 1628); assay type: functional; conditions: MIN6
[16] = MIN6 cell viability loss – mouse insulinoma, cytotoxicity control, dose response (AID 2122); assay type: functional;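 also: confirmatory high-throughput counterscreen run to flag cytotoxic compounds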
[17] = molecular target: Peroxisome proliferator-activated receptor gamma/Nuclear receptor coactivator 3 (Homo sapiens, UniProt P37231); assay: TR-FRET dose response biochemical High Throughput Screening assay for agonists of the steroid receptor coactivator 3 (SRC-3) recruitment by the peroxisome proliferator-activated receptor gamma (PPAR gamma): non-selective agonists. [Related pubchem assays: 1301 (Confirmation screen.), 1048 (Primary screen.)]; assay type: functional
[18] = molecular target: Peroxisome proliferator-activated receptor gamma/Nuclear receptor coactivator 1 (Homo sapiens, UniProt P37231); assay: TR-FRET dose response biochemical High Throughput Screening assay for agonists of the steroid receptor coactivator 1 (SRC-1) recruitment by the peroxisome proliferator-activated receptor gamma (PPAR gamma): non-selective agonists. [Related pubchem assays (depositor defined):AID1300, AID1808, AID504735, AID631]; assay type: protein assay
[19] = molecular target: Peroxisome proliferator-activated receptor gamma/Nuclear receptor coactivator 2 (Homo sapiens, UniProt P37231); assay: TR-FRET dose response biochemical High Throughput Screening assay for agonists of the steroid receptor coactivator 2 (SRC-2) recruitment by the peroxisome proliferator-activated receptor gamma (PPAR gamma): non-selective agonists. [Related pubchem assays: 1297, 1032 ]; assay type: functional
[20] = viability of PTEN-deleted HCT116 cells – cell-based, HCT116 PTEN knockout, dose response (AID 1047); assay type: functional;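 also: HCT116 colon tumor cells with PTEN knocked out; cells exposed to compound for 60 hours before readout; potency for loss of cell viability measured by luminescence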
[21] = viability of HCT116 lacking mutant beta-catenin – cell-based, human colon tumor, dose response (AID 1045); assay type: functional;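 also: HCT116 colon tumor cells with beta catenin knocked out; cells exposed to compound for 60 hours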
HT-1080 = assay: HT1080 cell viability loss – fluorescence readout (AID 620); assay type: functional, cell-based; conditions: Homo sapiens
[22] = molecular target: Luciferin 4-monooxygenase (Photinus pyralis, UniProt P08659); assay: Counter Screen for Luciferase-based Assay Positives. [Related pubchem assays: 620, 618, 411 ]
[23] = toxicity to human HepG2 hepatoma cells – cell-based, plate reader, dry powder samples, cytotoxicity control, dose response (AID 1159569); assay type: functional;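 also: inhibitor potency with signal falling toward the positive control level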
[24] = molecular target: FAD-linked sulfhydryl oxidase ALR (Homo sapiens, UniProt P55789); assay: ALR-catalysed DTT oxidation blockers – biochemical, H2O2 detection, luminescence, cherry-pick, dose response (AID 493248)
[25] = molecular target: Dual specificity tyrosine-phosphorylation-regulated kinase 1A (Rattus norvegicus, UniProt Q63470); assay type: biochemical, Homo sapiens
[26] = A Cell Based Secondary Assay To Explore Cytotoxicity of Compounds that Sensitize Mycobacterium Tuberculosis to Beta-Lactam Antibiotics.; assay type: functional
[27] = viability of uninfected HEp-2 cells – cell-based, HTS, cytotoxicity control for RSV inhibitor project, dose response (AID 2410); assay type: functional; conditions: human respiratory syncytial virus
BJ [28] = assay: BJ-TERT-LT-ST fibroblast viability loss – cell-based, RAS-independent, luminescence, dose response (AID 1935); assay type: functional; conditions: Homo sapiens;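 also: BJ fibroblasts immortalized with TERT plus LT and ST oncogenes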
[29] = DRD fibroblast viability loss – cell-based, non-viral oncogenic, luminescence, dose response (AID 1934); assay type: functional; conditions: Homo sapiens
cells [30] = assay: cells
BJ [31] = assay: cells; assay type: functional, cell-based; conditions: Homo sapiens
BJ [32] = assay: BJ-TERT fibroblast viability loss – cell-based, RAS-independent, luminescence, dose response (AID 1933); assay type: functional; conditions: Homo sapiens
[33] = Trypanosoma cruzi growth suppression in host cells – NIH3T3 host cells, beta-gal luminescence, confirmation (AID 2044); assay type: functional, cell-based;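 also: intracellular parasites grown in NIH/3T3 mouse fibroblasts as host cells; luminescent beta-galactosidase reporter signal from transgenic T. cruzi replicating inside host cells; inhibitors lower the luminescence signal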
[34] = NIH3T3 cell viability loss – ATP luminescence, mouse fibroblasts, counter-screen, dose response (AID 2010); assay type: functional, cell-based;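 also: cells exposed to compound for about 90 hours before reading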

Chain of Peroxisome proliferator-activated receptor gamma/Nuclear receptor coactivator 3 (P37231 whole entry): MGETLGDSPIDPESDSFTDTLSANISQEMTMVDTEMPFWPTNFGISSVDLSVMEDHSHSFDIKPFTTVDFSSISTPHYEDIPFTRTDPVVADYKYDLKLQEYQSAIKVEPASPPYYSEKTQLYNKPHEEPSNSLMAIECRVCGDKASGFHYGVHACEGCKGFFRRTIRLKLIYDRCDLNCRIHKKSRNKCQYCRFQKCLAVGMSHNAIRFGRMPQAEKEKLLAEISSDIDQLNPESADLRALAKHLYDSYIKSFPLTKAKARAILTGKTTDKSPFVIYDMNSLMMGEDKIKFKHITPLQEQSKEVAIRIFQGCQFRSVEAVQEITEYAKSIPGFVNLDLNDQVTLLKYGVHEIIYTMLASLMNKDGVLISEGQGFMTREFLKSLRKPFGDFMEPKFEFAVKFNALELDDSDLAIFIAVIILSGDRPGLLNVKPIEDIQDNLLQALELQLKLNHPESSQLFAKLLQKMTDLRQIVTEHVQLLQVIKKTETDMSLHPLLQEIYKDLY
Chain of Peroxisome proliferator-activated receptor gamma/Nuclear receptor coactivator 3 (Q9Y6Q9 whole entry, further chain): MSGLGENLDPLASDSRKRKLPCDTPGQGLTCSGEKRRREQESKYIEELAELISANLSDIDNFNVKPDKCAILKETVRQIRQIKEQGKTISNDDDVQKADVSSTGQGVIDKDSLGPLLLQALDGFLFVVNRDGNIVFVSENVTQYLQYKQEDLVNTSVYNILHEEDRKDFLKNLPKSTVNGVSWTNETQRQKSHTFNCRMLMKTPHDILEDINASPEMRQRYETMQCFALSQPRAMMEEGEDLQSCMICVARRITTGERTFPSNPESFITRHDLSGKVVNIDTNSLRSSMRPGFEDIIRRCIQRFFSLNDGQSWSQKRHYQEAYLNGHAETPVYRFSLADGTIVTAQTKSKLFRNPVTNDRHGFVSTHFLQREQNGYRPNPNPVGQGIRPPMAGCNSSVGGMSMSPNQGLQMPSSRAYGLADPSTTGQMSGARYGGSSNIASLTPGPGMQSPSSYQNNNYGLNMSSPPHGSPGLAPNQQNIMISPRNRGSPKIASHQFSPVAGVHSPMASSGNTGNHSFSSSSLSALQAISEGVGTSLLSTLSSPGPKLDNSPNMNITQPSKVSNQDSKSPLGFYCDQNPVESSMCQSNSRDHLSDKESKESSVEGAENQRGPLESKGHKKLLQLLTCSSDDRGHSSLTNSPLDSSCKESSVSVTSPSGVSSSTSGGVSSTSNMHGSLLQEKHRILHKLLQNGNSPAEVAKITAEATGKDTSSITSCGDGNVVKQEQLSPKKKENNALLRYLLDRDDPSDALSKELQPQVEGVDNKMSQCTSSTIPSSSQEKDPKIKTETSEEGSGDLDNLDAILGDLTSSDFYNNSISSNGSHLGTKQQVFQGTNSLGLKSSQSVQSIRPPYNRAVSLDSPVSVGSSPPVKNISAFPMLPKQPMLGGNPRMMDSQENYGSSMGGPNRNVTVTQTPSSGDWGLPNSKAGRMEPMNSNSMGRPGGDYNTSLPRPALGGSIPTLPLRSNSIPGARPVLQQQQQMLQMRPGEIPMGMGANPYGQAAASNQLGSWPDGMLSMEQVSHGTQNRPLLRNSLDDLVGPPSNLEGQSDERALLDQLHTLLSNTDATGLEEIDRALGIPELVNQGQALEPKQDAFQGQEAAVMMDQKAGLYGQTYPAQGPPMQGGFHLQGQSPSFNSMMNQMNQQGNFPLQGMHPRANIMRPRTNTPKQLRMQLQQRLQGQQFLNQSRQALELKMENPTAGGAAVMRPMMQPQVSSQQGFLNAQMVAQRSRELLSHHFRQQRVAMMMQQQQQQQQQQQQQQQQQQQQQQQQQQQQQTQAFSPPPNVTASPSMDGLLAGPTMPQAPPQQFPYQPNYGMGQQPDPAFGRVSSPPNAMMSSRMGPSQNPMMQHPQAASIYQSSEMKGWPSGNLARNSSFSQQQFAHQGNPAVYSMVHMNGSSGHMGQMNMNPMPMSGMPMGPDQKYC
Chain of Peroxisome proliferator-activated receptor gamma/Nuclear receptor coactivator 2 (P37231 whole entry): as the sequence (P37231 whole entry) above
Chain of Peroxisome proliferator-activated receptor gamma/Nuclear receptor coactivator 2 (Q15596 whole entry, further chain): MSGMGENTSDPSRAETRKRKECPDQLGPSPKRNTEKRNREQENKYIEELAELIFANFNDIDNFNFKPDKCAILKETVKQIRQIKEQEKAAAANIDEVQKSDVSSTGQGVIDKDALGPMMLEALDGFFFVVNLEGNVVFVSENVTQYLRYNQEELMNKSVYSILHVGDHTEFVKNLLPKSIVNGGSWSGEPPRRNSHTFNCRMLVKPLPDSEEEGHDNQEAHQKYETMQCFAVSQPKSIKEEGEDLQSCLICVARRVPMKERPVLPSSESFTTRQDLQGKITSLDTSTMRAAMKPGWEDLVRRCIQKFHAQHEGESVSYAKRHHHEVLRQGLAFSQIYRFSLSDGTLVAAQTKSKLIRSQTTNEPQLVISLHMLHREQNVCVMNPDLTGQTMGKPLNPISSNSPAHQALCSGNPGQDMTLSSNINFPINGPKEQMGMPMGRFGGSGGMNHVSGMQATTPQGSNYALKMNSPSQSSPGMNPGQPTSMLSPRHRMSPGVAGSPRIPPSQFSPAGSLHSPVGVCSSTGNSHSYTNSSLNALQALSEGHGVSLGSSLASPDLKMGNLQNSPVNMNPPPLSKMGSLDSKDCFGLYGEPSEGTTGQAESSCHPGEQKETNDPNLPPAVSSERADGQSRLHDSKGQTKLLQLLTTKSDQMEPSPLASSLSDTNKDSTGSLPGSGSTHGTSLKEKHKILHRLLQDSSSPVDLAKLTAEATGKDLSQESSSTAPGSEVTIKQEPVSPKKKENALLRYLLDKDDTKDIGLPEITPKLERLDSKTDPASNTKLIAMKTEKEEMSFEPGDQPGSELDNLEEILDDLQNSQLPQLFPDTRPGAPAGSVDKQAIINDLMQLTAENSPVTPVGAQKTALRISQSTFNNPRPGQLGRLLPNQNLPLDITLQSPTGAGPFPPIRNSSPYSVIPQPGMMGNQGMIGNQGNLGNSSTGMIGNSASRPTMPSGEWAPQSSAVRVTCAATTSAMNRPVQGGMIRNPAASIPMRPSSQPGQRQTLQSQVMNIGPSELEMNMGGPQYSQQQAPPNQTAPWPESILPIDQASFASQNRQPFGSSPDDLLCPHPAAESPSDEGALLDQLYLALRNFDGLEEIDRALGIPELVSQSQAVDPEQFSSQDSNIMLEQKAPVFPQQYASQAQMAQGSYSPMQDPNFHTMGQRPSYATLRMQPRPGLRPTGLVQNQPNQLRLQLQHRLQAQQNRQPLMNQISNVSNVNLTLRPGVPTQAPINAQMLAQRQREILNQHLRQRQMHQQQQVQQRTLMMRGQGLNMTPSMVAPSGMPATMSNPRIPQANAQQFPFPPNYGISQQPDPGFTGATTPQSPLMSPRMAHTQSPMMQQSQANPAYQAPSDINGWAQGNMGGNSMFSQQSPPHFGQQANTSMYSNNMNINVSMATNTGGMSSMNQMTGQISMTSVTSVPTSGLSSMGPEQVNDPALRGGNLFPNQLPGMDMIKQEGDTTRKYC
Chain of Luciferin 4-monooxygenase (P08659 whole entry): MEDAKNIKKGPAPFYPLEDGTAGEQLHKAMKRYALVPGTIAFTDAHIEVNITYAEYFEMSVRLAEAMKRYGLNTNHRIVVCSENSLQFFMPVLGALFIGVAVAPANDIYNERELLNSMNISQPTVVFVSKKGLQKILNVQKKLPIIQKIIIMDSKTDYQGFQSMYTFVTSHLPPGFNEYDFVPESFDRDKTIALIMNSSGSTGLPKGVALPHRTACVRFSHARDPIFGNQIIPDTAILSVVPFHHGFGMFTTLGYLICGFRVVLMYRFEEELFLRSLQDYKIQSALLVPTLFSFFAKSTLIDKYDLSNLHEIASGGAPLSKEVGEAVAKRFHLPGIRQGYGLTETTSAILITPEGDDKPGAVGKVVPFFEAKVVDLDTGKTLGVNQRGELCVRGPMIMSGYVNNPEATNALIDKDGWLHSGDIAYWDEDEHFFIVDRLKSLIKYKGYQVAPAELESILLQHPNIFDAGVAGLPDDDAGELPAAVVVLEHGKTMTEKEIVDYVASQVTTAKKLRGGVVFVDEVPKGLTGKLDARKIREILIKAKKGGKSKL
Chain of FAD-linked sulfhydryl oxidase ALR (P55789 whole entry): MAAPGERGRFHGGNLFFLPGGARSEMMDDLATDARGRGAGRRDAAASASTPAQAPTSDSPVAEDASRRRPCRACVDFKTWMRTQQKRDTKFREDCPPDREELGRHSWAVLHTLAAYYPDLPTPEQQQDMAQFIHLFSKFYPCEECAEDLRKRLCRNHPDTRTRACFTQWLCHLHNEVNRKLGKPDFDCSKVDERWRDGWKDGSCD

SMILES: O=C(CCC1CCCC1)c1c(O)c2ccccc2oc1=O
- CC50 [1]: 14.4 µM (active)
- CC50 [2]: 23.5 µM (active)
- IC50 (cells [3]): 8.45 µM (active)
- CC50 [4]: > 20 µM (active)
- EC50 [5]: 5.96 µM (active)
- CC50 [6]: 15.4 µM (active)

SMILES: C[C@@H]1CN([C@@H](C)CO)C(=O)c2cc(NC(=O)Nc3ccc(C(F)(F)F)cc3)ccc2O[C@@H]1CN(C)Cc1ccc(Cl)c(Cl)c1
- AC50 [7]: 3.38 µM (active)

SMILES: Cc1[nH]n(-c2ccc(Cl)cc2)c(=O)c1N=Nc1cccnc1
- CC50 [1]: 12.2 µM (active)
- CC50 [2]: 26.7 µM (active)
- IC50 (cells [3]): 1.78 µM (active)
- CC50 [4]: > 20 µM (active)

SMILES: COc1ccc2c3c([nH]c2c1)[C@@H](CO)N(Cc1ccccc1)CC31CCN(Cc2cncnc2)CC1
- AC50 [8]: 0.871 µM (active)
- AC50 [9]: > 39 µM (inactive)
- AC50 [10]: 0.929 µM (active)
- AC50 [11]: 2.12 µM (active)
- AC50 [12]: 1.27 µM (active)

SMILES: O=C(c1ccc2c(c1)N(Cc1cccc(Cl)c1)C(=O)c1ccccc1S2(=O)=O)N1CCN(c2ccccn2)CC1
- IC50 (Vero [13]): 10.1 µM (active)
- CC50 (Vero [14]): > 25 µM (active)

SMILES: CN1CCN(c2ccccc2NC(=O)c2cccc(OCc3ccccc3)c2)CC1
- IC50 [15]: 4.3 µM (active)
- IC50 [16]: 4.17 µM (active)

SMILES: C/C=C/c1ccccc1[C@H]1[C@@H](C#N)N(c2nc(CC)cs2)[C@@H]1CO
- AC50 [9]: 21.4 µM (active)
- AC50 [11]: 3.11 µM (active)

SMILES: O=c1oc(-c2ccccc2F)nc2c1cnn2-c1ccccc1
- EC50 [17]: > 79.4 µM (not active)
- EC50 [18]: > 79.4 µM (inactive)
- EC50 [19]: > 79.4 µM (not active)

SMILES: C[C@H]1CN([C@@H](C)CO)C(=O)c2cccc(NC(=O)c3nc4ccccc4s3)c2O[C@@H]1CN(C)S(=O)(=O)c1ccc(Cl)cc1
- AC50 [7]: 1.8 µM (active)

SMILES: Clc1cccc2c1Sc1ccccc1CC2N1CCNCC1 (stereo not given)
- CC50 [1]: 9.77 µM (active)
- CC50 [2]: 8.49 µM (active)
- IC50 (cells [3]): 11.5 µM (active)
- CC50 [4]: 7.37 µM (active)
- EC50 [20]: 7.22 µM (active)
- EC50 [21]: 7.41 µM (active)

SMILES: CCCCc1ccc(-c2nc(-c3ccncc3)no2)cc1
- EC50 (HT-1080): > 50 µM (not active)
- EC50 [22]: 60.6 µM (active)

SMILES: COc1ccc(-c2ccc([C@H]3[C@H](C#N)N(C(=O)c4cccnc4)[C@H]3CO)cc2)cc1
- AC50 [8]: 0.586 µM (active)
- AC50 [9]: > 42 µM (inactive)
- AC50 [10]: 0.764 µM (active)
- AC50 [11]: 1.25 µM (active)
- AC50 [12]: 1.15 µM (active)
- AC50 [23]: > 100 µM (inactive)

SMILES: Cc1ccc(S(=O)(=O)Nc2ccc3c(c2)C(=O)N([C@@H](C)CO)C[C@H](C)[C@H](CN(C)Cc2ccc(Cl)c(Cl)c2)O3)cc1
- AC50 [7]: 5.67 µM (active)

SMILES: COc1ccc2c3c([nH]c2c1)[C@H](CO)N(Cc1ccccn1)CC31CCN(Cc2cccc(F)c2)CC1
- AC50 [8]: 0.559 µM (active)
- AC50 [9]: > 39 µM (inactive)
- AC50 [10]: 0.422 µM (active)
- AC50 [11]: 1.48 µM (active)
- AC50 [12]: 1.12 µM (active)
- AC50 [23]: 1.21 µM (active)

SMILES: CCCN1C(=O)c2ccccc2NC1c1ccc(OC)cc1O (stereo not given)
- IC50 (Vero [13]): 24.1 µM (active)
- AC50 [24]: 12.2 µM (active)

SMILES: O=C(Nc1ccccc1Cl)c1csc(-c2cccnc2)n1
- AC50 [25]: 0.493 µM (active)
- CC50 [26]: > 40 µM (active)

SMILES: COc1ccccc1-c1cc(C(=O)N/N=C/c2cccs2)c2ccccc2n1
- CC50 [27]: 24.7 µM (active)
- IC50 (Vero [13]): 18.9 µM (active)
- CC50 (Vero [14]): > 25 µM (active)

SMILES: Cc1cccc(-n2c(SCC(=O)Nc3ncc(Cl)cc3Cl)nc3ccccc32)c1
- CC50 [27]: 2.36 µM (active)
- EC50 (BJ [28]): > 150 µM (not active)
- EC50 [29]: 94.2 µM (active)
- IC50 (Vero [13]): 0.56 µM (active)
- CC50 (Vero [14]): > 25 µM (active)
- IC50 (cells [30]): 1.26 µM (active)
- EC50 (BJ [31]): 50.5 µM (inconclusive)
- EC50 (BJ [32]): 33.7 µM (active)

SMILES: Clc1ccc(Cl)c(-c2ccc(/C=N/c3nc[nH]n3)o2)c1
- EC50 [17]: > 79.4 µM (not active)
- EC50 [18]: 13.7 µM (inactive)
- EC50 [19]: 12.6 µM (not active)

SMILES: Cc1ccc(CN2C(=O)N/C(=C\c3ccc(-c4ccc(C(=O)O)cc4C)o3)C2=O)cc1
- CC50 [26]: > 40 µM (active)

SMILES: CC(C)C(=O)Nc1ccc(NC(=O)c2ccccn2)cn1
- EC50 (HT-1080): > 50 µM (not active)
- EC50 [22]: 0.44 µM (active)

SMILES: CCOc1ccc(/N=c2\cc(-c3ccc(OC)cc3)oc3ccccc23)cc1
- EC50 [33]: 2.64 µM (active)
- EC50 [34]: > 60 µM (not active)
- EC50 [20]: 47.5 µM (active)
- CC50 [26]: > 40 µM (active)
- EC50 [21]: 60.6 µM (active)

SMILES: C[C@H]1CN([C@@H](C)CO)C(=O)Cc2cc(NC(=O)Nc3ccccc3)ccc2O[C@H]1CN(C)Cc1ccc(C(F)(F)F)cc1
- AC50 [7]: 3.26 µM (active)

SMILES: O=C(c1cc2c(s1)-c1ccccc1OC2)N1CCN(c2ccccn2)CC1
- EC50 [17]: > 79.4 µM (not active)
- EC50 [18]: 33.7 µM (inactive)
- EC50 [19]: 23.2 µM (not active)

SMILES: O=C(CSc1ncnc2c1oc1ccccc12)OCc1ccccc1
- EC50 [17]: > 79.4 µM (not active)
- EC50 [18]: > 2.94 µM (inactive)
- EC50 [19]: > 8.82 µM (not active)
